In patent US8212050B2, “Amidine compounds and herbicides” (Nippon Soda Co., Ltd., priority 2005, dated 2012) one finds melting point data, which are given here for two compounds.

For orientation: melting point means the temperature, or range, at which the solid turns liquid.

For the compound `C#CCOc1cc(N=C(C=NOC)N2CCCC2)c(F)cc1Cl` [compound 190, 2-(4-chloro-2-fluoro-5-propargyloxyphenylimino)-2-(pyrrolidine-1-yl)acetaldehyde O-methyloxime], the melting point lay in the range of 73 to 75 °C. As to `CCOC(=O)C(C)Oc1cc(N=C(C(N)=O)N2CCCC2)c(Cl)cc1Cl` (centres unmarked) [compound 293, 2-[2,4-dichloro-5-(1-ethoxycarbonylethoxy)phenylimino]-2-(pyrrolidine-1-yl)acetamide], the melting point is 160 to 163 °C.
